Experimental data reported in article PMC10062711 (Journal of Molecular Structure, 2023).
In brackets after ≈: the same amount, converted by molar mass.

What was measured:
E. coli (MTCC-443) = test: In vitro antibacterial MIC, microbroth dilution; type: cell-based; conditions: for MIC E. coli: 24 h incubation; for MIC: Escherichia coli, MTCC443, 24 h, read-out: MIC E. coli
B. subtilis (MTCC-121) = test: In vitro antibacterial MIC, microbroth dilution; type: cell-based; conditions: for MIC B. subtilius: 24 h incubation; for potency against B. substilius compared to the standard drug: versus Streptomycin
P. aeruginosa (MTCC-741) = test: In vitro antibacterial MIC, microbroth dilution; type: cell-based; conditions: for MIC P. aeruginosa: 24 h incubation; for MIC: Pseudomonas aeruginosa, MTCC741, 24 h, read-out: MIC P. aeruginosa
C. albicans = test: In vitro antifungal MIC; type: cell-based; conditions: for MIC C. albicans: 72-96 h incubation; for MIC: Candida albicans, read-out: MIC C. albicans
S. aureus (MTCC-96) = test: In vitro antibacterial MIC, microbroth dilution; type: cell-based; conditions: for MIC S. aureus: 24 h incubation
Rhizopus sp = test: In vitro antifungal MIC; type: cell-based; conditions: for MIC Rhizopus sp: 72-96 h incubation; for MIC: Rhizopus, read-out: MIC Rhizopus sp
K. pneumonia (MTCC2272) = test: In vitro antibacterial MIC, microbroth dilution; type: cell-based, K. pneumoniae; conditions: for MIC K. pneumoniae: 24 h incubation; for inhibitory activity against K. pneumoniae compared to standard drug: versus Streptomycin
A. flavus = test: In vitro antifungal MIC; type: cell-based; conditions: for MIC A .flavus: 72-96 h incubation; for MIC: Aspergillus flavus, read-out: MIC A .flavus
A. niger = test: In vitro antifungal MIC; type: cell-based; conditions: for MIC A. niger: 72-96 h incubation; for MIC: Aspergillus niger, read-out: MIC A. niger
[1] = test system: Mycobacterium tuberculosis H37Rv; test: Antitubercular activity, Resazurin Assay method; type: cell-based; conditions: for % Inhibition: primary screening (6.5 mg/mL)
[2] = Mycobacterium tuberculosis, H37RV

| Compound | MIC E. coli (E. coli (MTCC-443)) [µg/mL] | MIC B. subtilius (B. subtilis (MTCC-121)) [µg/mL] | MIC P. aeruginosa (P. aeruginosa (MTCC-741)) [µg/mL] | MIC C. albicans (C. albicans) [µg/mL] | MIC S. aureus (S. aureus (MTCC-96)) [µg/mL] | MIC Rhizopus sp (Rhizopus sp) [µg/mL] | MIC K. pneumoniae (K. pneumonia (MTCC2272)) [µg/mL] | MIC A .flavus (A. flavus) [µg/mL] | MIC A. niger (A. niger) [µg/mL] | % Inhibition ([1]; M. tb H37Rv) [%] | MIC [1, 2] [µg/mL] | inhibition at 6500 µg/mL [1, 2] [%] | MIC (E. coli (MTCC-443)) [µg/mL] | MIC (P. aeruginosa (MTCC-741)) [µg/mL] | MIC (C. albicans) [µg/mL] | MIC (Rhizopus sp) [µg/mL] | MIC (A. flavus) [µg/mL] | MIC (A. niger) [µg/mL] | other results |
| --- | --- | --- | --- | --- | --- | --- | --- | --- | --- | --- | --- | --- | --- | --- | --- | --- | --- | --- | --- |
| 3-Ethyl-2,6-diphenyltetrahydro-4H-pyran-4-one O-ethynyl oxime [Compound 20] | 12.5 | 25 | 25 | 100 | 12.5 | 50 | 25 | 100 | 25 |  |  |  |  |  |  |  |  |  | activity against S. aureus compared to the standard drug (S. aureus (MTCC-96); versus Streptomycin): fourfold |
| 3,5-Dimethyl-2,6-bis(p-chlorophenyl)−4H-pyran-4-one O-((1-phenyl-1H-1,2,3-triazol-4-yl) methyl)oxime [Compound 27] | 6.3 | 50 | 25 |  | 25 |  | 50 | 25 | 25 | 75 |  |  |  |  |  |  |  |  | inhibitory activity against E. coli compared to Streptomycin (E. coli (MTCC-443); versus Streptomycin): two-fold; MIC ([1]; M. tb H37Rv, neutral pH): 6.25 µg/mL |
| 3,5-Dimethyl-2,6-bis(p-methoxyphenyl)−4H-pyran-4-one O-((1-phenyl-1H-1,2,3-triazol-4-yl)methyl)oxime [Compound 30] |  | 25 |  | 25 |  |  | 25 |  | 12.5 | 80 |  |  |  |  |  |  |  |  |  |
| NC(=O)c1cnccn1 [PZA, pyrazinamide, reference compound] |  |  |  |  |  |  |  |  |  |  | 6.25 (≈ 50.8 µM) | > 90 |  |  |  |  |  |  |  |
| CC[C@@H](CO)NCCN[C@@H](CC)CO [EMB, Ethambutol, reference compound] |  |  |  |  |  |  |  |  |  |  | 1.56 (≈ 7.64 µM) | > 95 |  |  |  |  |  |  |  |
| NNC(=O)c1ccncc1 [INH, isoniazid, reference compound] |  |  |  |  |  |  |  |  |  |  | 0.1 (≈ 0.729 µM) | > 95 |  |  |  |  |  |  |  |
| 3-Methyl-2,6-diphenyltetrahydro-4H-pyran-4-one O-ethynyl oxime [Compound 19] | 50 | 25 | 100 | 100 | 50 | 100 | 25 | 100 | 50 |  |  |  |  |  |  |  |  |  |  |
| CC1C(=NOCc2cn(-c3ccccc3)nn2)CC(c2ccccc2)OC1c1ccccc1 (centres unmarked) [Compound 25, 3-Methyl-2,6-diphenyltetrahydro-4H-pyran-4-one O-((1-phenyl-1H-1,2,3-triazol-4-yl)methyl)oxime] |  |  |  |  |  |  |  |  |  |  | 6.25 (≈ 14.3 µM) | 75 | 25 (≈ 57 µM) | 12.5 (≈ 28.5 µM) | 25 (≈ 57 µM) | 25 (≈ 57 µM) | 12.5 (≈ 28.5 µM) | 50 (≈ 114 µM) | inhibitory activity against K. pneumoniae compared to standard drug (K. pneumonia (MTCC2272)): four-fold |
| 3,5-Dimethyl-2,6-bis(p-methylphenyl)−4H-pyran-4-one O-((3-(4-chlorophenyl) isoxazol-5-yl)methyl) oxime [Compound 35] | 25 | 12.5 | 25 | 25 | 12.5 | 50 | 25 | 25 | 25 | 82 |  |  |  |  |  |  |  |  | potency against B. substilius compared to the standard drug (B. subtilis (MTCC-121)): two-fold; MIC ([1]; M. tb H37Rv, neutral pH): 6.25 µg/mL |
| 3-Methyl-2,6-diphenylpyran-4-one N-isonicotinoylhydrazone [Compound 7] | 6.3 | 12.5 | 12.5 | 25 | 25 | 25 | 12.5 | 12.5 | 50 | 73 |  |  |  |  |  |  |  |  | MIC ([1]; M. tb H37Rv, neutral pH): 6.25 µg/mL |
| CCC1C(=NOCc2cc(-c3ccc(Cl)cc3)no2)CC(c2ccccc2)OC1c1ccccc1 (centres unmarked) [Compound 32, 3-Ethyl-2,6-diphenyltetrahydro-4H-pyran-4-one O-((3-(4-chlorophenyl)isoxazol-5-yl)methyl) oxime] |  | 12.5 (≈ 25.7 µM) |  |  |  |  |  |  |  |  | 6.25 (≈ 12.8 µM) | 91 | 25 (≈ 51.3 µM) | 25 (≈ 51.3 µM) | 25 (≈ 51.3 µM) | 12.5 (≈ 25.7 µM) | 6.3 (≈ 12.9 µM) | 25 (≈ 51.3 µM) | potency against B. substilius compared to the standard drug (B. subtilis (MTCC-121)): two-fold |
| CCC1C(=NOCc2cn(-c3ccccc3)nn2)CC(c2ccccc2)OC1c1ccccc1 (centres unmarked) [Compound 26, 3-Ethyl-2,6-diphenyltetrahydro-4H-pyran-4-one O-((1-phenyl-1H-1,2,3-triazol-4-yl)methyl) oxime] |  |  |  |  |  |  |  |  |  |  | 6.25 (≈ 13.8 µM) | 70 | 12.5 (≈ 27.6 µM) | 25 (≈ 55.2 µM) | 6.3 (≈ 13.9 µM) | 12.5 (≈ 27.6 µM) | 6.3 (≈ 13.9 µM) | 25 (≈ 55.2 µM) | inhibitory activity against K. pneumoniae compared to standard drug (K. pneumonia (MTCC2272)): four-fold |
| CC1C(=NOCc2cc(-c3ccc(Cl)cc3)no2)CC(c2ccccc2)OC1c1ccccc1 (centres unmarked) [Compound 31, 3-Methyl-2,6-diphenyltetrahydro-4H-pyran-4-one-O-((3-(4-chlorophenyl)isoxazol-5-yl)methyl) oxime] |  | 12.5 (≈ 26.4 µM) |  |  |  |  |  |  |  |  | 6.25 (≈ 13.2 µM) | 90 | 12.5 (≈ 26.4 µM) | 12.5 (≈ 26.4 µM) | 25 (≈ 52.9 µM) | 25 (≈ 52.9 µM) | 12.5 (≈ 26.4 µM) | 50 (≈ 106 µM) | potency against B. substilius compared to the standard drug (B. subtilis (MTCC-121)): two-fold |
